In this assay the target is T1, human APJ receptor (Homo sapiens, UniProt P35414).
T1 construct: expressed in transfected cells; host or cells: HEK293
T1 sequence (P35414 1-380): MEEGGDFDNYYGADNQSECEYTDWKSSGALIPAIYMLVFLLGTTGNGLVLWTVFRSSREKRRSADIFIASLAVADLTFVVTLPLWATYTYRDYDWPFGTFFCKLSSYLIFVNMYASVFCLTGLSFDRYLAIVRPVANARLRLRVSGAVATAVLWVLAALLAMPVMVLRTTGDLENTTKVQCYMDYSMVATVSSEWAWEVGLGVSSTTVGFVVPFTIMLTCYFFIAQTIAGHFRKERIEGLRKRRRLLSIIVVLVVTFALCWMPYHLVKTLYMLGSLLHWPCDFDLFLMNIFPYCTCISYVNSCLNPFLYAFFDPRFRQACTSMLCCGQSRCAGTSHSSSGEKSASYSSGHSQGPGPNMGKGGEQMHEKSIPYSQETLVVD
Put plainly: Intracellular cAMP accumulation assay (APJ hcAMP, HTRF). To be noted: HEK293 cells stably expressing human APJ receptor, inhibition of forskolin-mediated cAMP production. In kind it is cell-based. The method in brief: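 Inhibition of forskolin (2 μM)-driven cAMP, with […], measured by HTRF after 30 min room-temperature compound exposure of stably transfected HEK293 cells. cAMP read from a standard curve; variable-slope fit gives EC50, and maximal inhibition is normalised to (Pyr1)apelin-13 as 100%.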

Setting [1] is: Table 1, read-out: hAPJ cAMP EC50 Potency range.
Setting [2] is: Table 2, read-out: hAPJ cAMP EC50 Potency range.

Where two headings read alike, the source gives them in different places.

By EC50 is commonly meant the concentration at which the effect is half-maximal.

For the compound `CCN(c1ccccc1)c1c(-c2cnc(C)s2)nc(O)c(S(=O)(=O)c2ccc(-c3cccc(C(=O)NC)c3)cc2)c1O` [Example 188, 4′-((5-(ethyl(phenyl)amino)-2,4-dihydroxy-6-(2-methylthiazol-5-yl)pyridin-3-yl)suflonyl)-N-methyl-[1,1′-biphenyl]-3-carboxamide], the EC50 under setting [1] was in the range of 0.01 to 10 nM.
The same measure, in the same setting: the result for `CCN(c1ccccc1)c1c(-c2cnc(C)s2)nc(O)c(S(=O)(=O)c2ccc(-c3ccccc3C(=O)NC3CC3)cc2)c1O` [Example 189, N-cyclopropyl-4′-((5-(ethyl(phenyl)amino)-2,4-dihydroxy-6-(2-methylthiazol-5-yl)pyridin-3-yl)sulfonyl)-[1,1′-biphenyl]-2-carboxamide] reads 0.01 to 10 nM; that for `CCN(c1ccccc1)c1c(-c2cnc(C)s2)nc(O)c(S(=O)(=O)c2ccc(-c3ccc(F)nc3C)cc2)c1O` [Example 190, 5-(ethyl(phenyl)amino)-3-((4-(6-fluoro-2-methylpyridin-3-yl)phenyl)sulfonyl)-6-(2-methylthiazol-5-yl)pyridine-2,4-diol], 0.01 to 10 nM; that for `CCN(c1ccccc1)c1c(-c2cnc(C)s2)nc(O)c(S(=O)(=O)c2ccc(-c3ccnc(F)c3C)cc2)c1O` [Example 191, 5-(ethyl(phenyl)amino)-3-((4-(2-fluoro-3-methylpyridin-4-yl)phenyl)sulfonyl)-6-(2-methylthiazol-5-yl)pyridine-2,4-diol], 0.01 to 10 nM.
As for `CCN(c1ccccc1)c1c(-c2cnc(C)s2)nc(O)c(S(=O)(=O)c2ccc(-c3ccccc3C(=O)NC)cc2)c1O` [Example 192, 4′-((5-(ethyl(phenyl)amino)-2,4-dihydroxy-6-(2-methylthiazol-5-yl)pyridin-3-yl)suflonyl)-N-methyl-[1,1′-biphenyl]-2-carboxamide], the EC50 under setting [1] was in the range of 0.01 to 10 nM.
Turning to `CCCCc1nc(O)c(S(=O)(=O)c2ccc(-c3ccnc(F)c3C)cc2)c(O)c1N(C)c1ccccc1C` [Example 193, 6-butyl-3-((4-(2-fluoro-3-methypyridin-4-yl)phenyl)sulfonyl)-5-(methyl(o-tolyl)amino)pyridine-2,4-diol], the EC50 under setting [1] lay in the range of 0.01 to 10 nM.
Still for that read-out and setting: then `CCCCc1nc(O)c(S(=O)(=O)c2ccc(-c3cccnc3C)cc2)c(O)c1N(C)c1ccccc1C` [Example 194, 6-butyl-5-(methyl(o-tolyl)amino)-3-((4-(2-methylpyridin-3-yl)phenyl)sulfonyl)pyri-dine-2,4-diol], with 10 to 100 nM; and `CCCCc1nc(O)c(S(=O)(=O)c2ccc(-c3ccccc3C(N)=O)cc2)c(O)c1N(C)c1ccccc1C` [Example 195, 4′-((6-butyl-2,4-dihydroxy-5-(methyl(o-tolyl)amino)pyridin-3-yl)sulfonyl)-[1,1′-biphenyl]-2-carboxamide], with 0.01 to 10 nM; and `CCCCc1nc(O)c(S(=O)(=O)c2ccc(-c3ccccc3C(=O)N(C)C)cc2)c(O)c1N(C)c1ccccc1C` [Example 196, 4′-((6-butyl-2,4-dihydroxy-5-(methyl(o-tolyl)amino)pyridin-3-yl)sulfonyl)-N,N-dimethyl-[1,1′-biphenyl]-2-carboxamide], with 0.01 to 10 nM.
Under “hAPJ cAMP EC50 Potency range, Table 2”, `CCN(c1ccccc1)c1c(-c2ccn(C)n2)nc(O)c(C(=O)N2CCC(c3ncc(F)cc3F)C2)c1O` (centres unmarked) [Example 197, (3-(3,5-difluoropyridin-2-yl)pyrrolidin-1-yl)(5-(ethyl(phenyl)amino)-2,4-dihydroxy-6-(1-methyl-1H-pyrazol-3-yl)pyridin-3-yl)methanone] registered a half-maximal effective concentration (EC50) of 0.01 to 10 nM.
Regarding `CCCCc1nc(O)c(S(=O)(=O)c2ccc(-c3ccc(F)nc3C)cc2)c(O)c1N(C)c1ccccc1C` [Example 198, 6-butyl-3-((4-(6-fluoro-2-methylpyridin-3-yl)phenyl)sulfonyl)-5-(methyl(o-tolyl)amino)pyridine-2,4-diol], the EC50 under setting [1] lay within 10 to 100 nM.
On to `CCN(c1ccccc1)c1c(-c2ccn(C)n2)nc(O)c(C(=O)N2CCC(c3ccc(Cl)cn3)C2)c1O` (centres unmarked) [Example 200, (3-(5-chloropyridin-2-yl)pyrrolidin-1-yl)(5-(ethyl(phenyl)amino)-2,4-dihydroxy-6-(1-methyl-1H-pyrazol-3-yl)pyridin-3-yl)methanone], for which the half-maximal effective concentration (EC50) under setting [2] lay within 0.01 to 10 nM.
With `CCN(c1ccccc1)c1c(-c2ccn(C)n2)nc(O)c(C(=O)N2CCC(c3ccc(F)cc3F)C2)c1O` (centres unmarked) [Example 201, (3-(2,4-difluorophenyl)pyrrolidin-1-yl)(5-(ethyl(phenyl)amino)-2,4-dihydroxy-6-(1-methyl-1H-pyrazol-3-yl)pyridin-3-yl)methanone], the EC50 under setting [2] lay within 0.01 to 10 nM.
Same read-out and setting: the result for `CCN(c1ccccc1)c1c(-c2ccn(C)n2)nc(O)c(C(=O)N2CCC(c3ccccc3F)C2)c1O` (centres unmarked) [Example 202, (5-(ethyl(phenyl)amino)-2,4-dihydroxy-6-(1-methyl-1H-pyrazol-3-yl)pyridin-3-yl)(3-(2-fluorophenyl)pyrrolidin-1-yl)methanone] reads 0.01 to 10 nM.
In the case of `CCCCc1nc(O)c(S(=O)(=O)c2ccc(-c3ccncc3C)cc2)c(O)c1N(C)c1ccccc1C` [Example 203, 6-butyl-5-(methyl(o-tolyl)amino)-3-((4-(3-methypyridin-4-yl)phenyl)sulfonyl)pyri-dine-2,4-diol], the EC50 under setting [1] is 0.01 to 10 nM.
For `CCN(c1ccccc1)c1c(-c2ccn(C)n2)nc(O)c(C(=O)N2CCC(c3ncc(Cl)cc3F)C2)c1O` (centres unmarked) [Example 204, (3-(5-chloro-3-fluoropyridin-2-yl)pyrrolidin-1-yl)(5-(ethyl(phenyl)amino)-2,4-dihydroxy-6-(1-methyl-1H-pyrazol-3-yl)pyridin-3-yl)methanone], the 50% effective concentration (EC50) under setting [2] fell in the range of 0.01 to 10 nM.
Still for that read-out and setting: then `CCN(c1ccccc1)c1c(-c2ccn(C)n2)nc(O)c(C(=O)N2CCC(c3ccccc3F)C2)c1O` (centres unmarked) [Example 205, (5-(ethyl(phenyl)amino)-2,4-dihydroxy-6-(1-methyl-1H-pyrazol-3-yl)pyridin-3-yl)(3-(2-fluorophenyl)pyrrolidin-1-yl)methanone], with 0.01 to 10 nM.
In the case of `CCCCc1nc(O)c(S(=O)(=O)c2ccc(-c3ccccc3C(=O)NC)cc2)c(O)c1N(C)c1ccccc1C` [Example 206, 4′-((6-butyl-2,4-dihydroxy-5-(methyl(o-tolyl)amino)pyridin-3-yl)sulfonyl)-N-methyl-[1,1′-biphenyl]-2-carboxamide], the EC50 under setting [1] lay in the range of 0.01 to 10 nM.
As for `CCN(c1ccccc1)c1c(-c2ccn(C)n2)nc(O)c(C(=O)N2CCC(c3ccc(F)cc3F)C2)c1O` (centres unmarked) [Example 207, (3-(2,4-difluorophenyl)pyrrolidin-1-yl)(5-(ethyl(phenyl)amino)-2,4-dihydroxy-6-(1-methyl-1H-pyrazol-3-yl)pyridin-3-yl)methanone], the concentration for a half-maximal effect (EC50) under setting [2] was 0.01 to 10 nM.
On to `CCCCc1nc(O)c(S(=O)(=O)c2ccc(-c3ccccc3C(=O)NC3CC3)cc2)c(O)c1N(C)c1ccccc1C` [Example 208, 4′-((6-butyl-2,4-dihydroxy-5-(methyl(o-tolyl)amino)pyridin-3-yl)sulfonyl)-N-cyclopropyl-[1,1′-biphenyl]-2-carboxamide], for which the EC50 under setting [1] fell in the range of 0.01 to 10 nM.
On to `CC(C)N(c1ccccc1)c1c(-c2ccn(C)n2)nc(O)c(C(=O)N2CCC(c3ccc(F)cc3F)C2)c1O` (centres unmarked) [Example 209, (3-(2,4-difluorophenyl)pyrrolidin-1-yl)(2,4-dihydroxy-5-(isopropyl(phenyl)amino)-6-(1-methyl-1H-pyrazol-3-yl)pyridin-3-yl)methanone], for which the EC50 under setting [2] fell in the range of 0.01 to 10 nM.
Take `CCN(c1cccc(C#N)c1)c1c(-c2ccn(C)n2)nc(O)c(S(=O)(=O)c2ccc(-c3ccccc3C(=O)N(C)C)cc2)c1O` [Example 210, 4′-((5-((3-cyano-phenyl)(ethyl)amino)-2,4-dihydroxy-6-(1-methyl-1H-pyrazol-3-yl)pyridin-3-yl)sulfonyl)-N,N-dimethyl-[1,1′-biphenyl]-2-carboxamide]: the EC50 under setting [1] lay in the range of 0.01 to 10 nM.
For `CCN(c1cccc(C#N)c1)c1c(-c2ccn(C)n2)nc(O)c(S(=O)(=O)c2ccc(-c3ccnc(F)c3C)cc2)c1O` [Example 211, 3-(ethyl(5-((4-(2-fluoro-3-methylpyridin-4-yl)phenyl)sulfonyl)-4,6-dihydroxy-2-(1-methyl-1H-pyrazol-3-yl)pyridin-3-yl)amino)benzonitrile], the EC50 under setting [1] fell in the range of 0.01 to 10 nM.
For the compound `CCN(c1cccc(C#N)c1)c1c(-c2ccn(C)n2)nc(O)c(S(=O)(=O)c2ccc(-c3ccncc3C)cc2)c1O` [Example 212, 3-((4,6-dihydroxy-2-(1-methyl-1H-pyrazol-3-yl)-5-((4-(3-methylpyridin-4-yl)phenyl)sulfonyl)pyri-din-3-yl)(ethyl)amino)benzonitrile], the EC50 under setting [1] lay within 0.01 to 10 nM.
The same measure, in the same setting: then `CCN(c1cccc(C#N)c1)c1c(-c2ccn(C)n2)nc(O)c(S(=O)(=O)c2ccc(-c3ccc(F)nc3C)cc2)c1O` [Example 213, 3-(ethyl(5-((4-(6-fluoro-2-methylpyridin-3-yl)phenyl)sulfonyl)-4,6-dihydroxy-2-(1-methyl-1H-pyrazol-3-yl)pyridin-3-yl)amino)benzonitrile], with 0.01 to 10 nM.
The same measure, in the same setting: the result for `CCN(c1cccc(C#N)c1)c1c(-c2ccn(C)n2)nc(O)c(S(=O)(=O)c2ccc(-c3ccccc3C(=O)NC)cc2)c1O` [Example 214, 4′-((5-((3-cyanophenyl)(ethyl)ami-no)-2,4-dihydroxy-6-(1-methyl-1H-pyrazol-3-yl)pyridin-3-yl)sulfonyl)-N-methyl-[1,1′-biphenyl]-2-carboxamide] reads 0.01 to 10 nM.

Source of the values: US10669258B2, “3-sulfonyl-5-aminopyridine-2,4-diol APJ agonists” (BRISTOL-MYERS SQUIBB COMPANY, priority 2016, dated 2020).
